Source: ChEMBL document CHEMBL1128830, “Synthesis and antibacterial activity of FR21818, a new, potent 1-methylcarbapenem” (1995)
Converted amounts (≈) assume the structure as drawn.

Assays:
Escherichia coli = assay: Minimum inhibitory concentration required for antibacterial activity against Escherichia coli NIHJ JC-2; format: functional
[1] = molecular target: T1, Dipeptidase 1 (Homo sapiens) (UniProt P16444); assay: In vitro renal dehydropeptidase I (DHP-I) stability relative to meropenem
T1 sequence (whole entry): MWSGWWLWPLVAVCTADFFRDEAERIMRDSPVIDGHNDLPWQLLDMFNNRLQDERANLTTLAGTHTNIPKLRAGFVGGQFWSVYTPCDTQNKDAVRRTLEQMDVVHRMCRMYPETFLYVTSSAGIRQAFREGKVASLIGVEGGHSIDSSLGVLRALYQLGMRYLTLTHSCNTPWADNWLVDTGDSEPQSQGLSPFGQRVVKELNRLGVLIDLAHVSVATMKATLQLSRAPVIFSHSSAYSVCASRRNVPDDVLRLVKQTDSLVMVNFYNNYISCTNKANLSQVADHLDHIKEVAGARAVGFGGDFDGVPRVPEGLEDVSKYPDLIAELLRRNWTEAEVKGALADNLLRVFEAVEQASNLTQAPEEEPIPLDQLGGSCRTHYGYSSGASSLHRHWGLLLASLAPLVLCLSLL

Mus musculus = assay: […] percent urinary recovery in mice after subcutaneous administration at a dose of 20 mg/Kg; format: functional, organism-based; details: Urine
Staphylococcus aureus [2] = assay: Minimum inhibitory concentration required for antibacterial activity against methicillin-resistant Staphylococcus aureus 3004; format: functional
Staphylococcus aureus [3] = assay: Minimum inhibitory concentration required for antibacterial activity against Staphylococcus aureus 209P JC-1; format: functional
Pseudomonas aeruginosa = assay: Minimum inhibitory concentration required for antibacterial activity against Pseudomonas aeruginosa 26; format: functional
Proteus vulgaris = assay: Minimum inhibitory concentration required for antibacterial activity against Proteus vulgaris IAM 1025; format: functional

| Compound | MIC (Escherichia coli) [µg/mL] | Stability [1] [%] | Recovery (Mus musculus) [%] | MIC (Staphylococcus aureus [2]) [µg/mL] | MIC (Staphylococcus aureus [3]) [µg/mL] | MIC (Pseudomonas aeruginosa) [µg/mL] | MIC (Proteus vulgaris) [µg/mL] |
| --- | --- | --- | --- | --- | --- | --- | --- |
| C[C@@H](O)[C@H]1C(=O)N2C(C(=O)O)=C(S[C@@H]3CN[C@H](Cc4cc[n+](CCO)n4C)C3)[C@H](C)[C@H]12.[Cl-] | 0.2 | 26 | 68.9 | 6.25 | 0.05 | 0.2 | 1.56 |
| C[C@@H](O)[C@H]1C(=O)N2C(C(=O)[O-])=C(SC3Cn4cnc[n+]4C3)[C@H](C)[C@H]12 (stereo partly specified) [BIAPENEM] | 0.39 (≈ 1.11 µM) | 15.4 | 70.7 | 25 (≈ 71.3 µM) | 0.1 (≈ 0.285 µM) | 0.2 (≈ 0.571 µM) | 3.13 (≈ 8.93 µM) |
| C[C@@H](O)[C@H]1C(=O)N2C(C(=O)O)=C(S[C@@H]3CN[C@H](C(=O)N(C)C)C3)[C@H](C)[C@H]12 [MEROPENEM] | < 0.025 | 100 | 25 | 25 (≈ 65.2 µM) | 0.1 (≈ 0.261 µM) | 0.2 (≈ 0.522 µM) | 0.1 (≈ 0.261 µM) |
